The values that follow come from patent US8012979B2, “Compounds and their uses 707” (AstraZeneca AB, priority 2007, dated 2011).

A short description of data set [1]: GVS (Dynamic Vapour Sorption) determination. The format is physicochemical. The settings on record: at 80% RH (±0.2%); crystalline polymorph A. The procedure: GVS profiles were measured using a Dynamic Vapour Sorption DVS-1 instrument. The solid sample ca. 1-5 mg was placed into a glass vessel and the weight of the sample was recorded during a dual cycle step method (40 to 90 to 0 to 90 to 0% relative humidity (RH), in steps of 10% RH).

Data set [2] addresses T1, human active recombinant p38α-6His tagged (Homo sapiens, UniProt Q16539).
T1 construct: 6His
Kind of data set: p38 Alpha Enzyme Assay (AlphaScreen, biotinylated-ATF2 substrate). The format is biochemical. The settings on record: pre-incubated 4 hours at 37° C., reaction initiated with ATP; 0.5 nM enzyme; read-out: p38 pIC50 (converted).

T1 sequence (Q16539 whole entry): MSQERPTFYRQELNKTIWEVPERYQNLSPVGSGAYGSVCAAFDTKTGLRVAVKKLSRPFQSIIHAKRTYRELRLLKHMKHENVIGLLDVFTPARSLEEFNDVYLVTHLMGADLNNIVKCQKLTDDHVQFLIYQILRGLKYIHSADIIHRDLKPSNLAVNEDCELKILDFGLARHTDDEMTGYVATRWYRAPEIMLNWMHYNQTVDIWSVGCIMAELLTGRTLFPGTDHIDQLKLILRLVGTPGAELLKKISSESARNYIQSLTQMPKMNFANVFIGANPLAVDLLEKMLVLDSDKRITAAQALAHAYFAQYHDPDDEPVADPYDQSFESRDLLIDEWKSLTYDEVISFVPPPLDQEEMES

As for `Cc1ccc(C(=O)NC2CC2)cc1-c1ccc2c(=O)n(Cc3ccccc3)cc(C(=O)NCCN(C)C)c2c1` [Example 47, 2-Benzyl-6-(5-(cyclopropylcarbamoyl)-2-methylphenyl)-N-(2-(dimethylamino)ethyl)-1-oxo-1,2-dihydroisoquinoline-4-carboxamide], the GVS weight increase in data set [1] was found to be 0.9 % w/w. The IC50 in data set [2] was 1.26 nM. Consider `CN[C@@H]1CCN(Cc2cn(CC3CC3)c(=O)c3ccc(-c4cc(C(=O)NC5CC5)cc(F)c4C)cc23)C1` [Example 106, (R)—N-Cyclopropyl-3-(2-(cyclopropylmethyl)-4-((3-(methylamino)pyrrolidin-1-yl)methyl)-1-oxo-1,2-dihydroisoquinolin-6-yl)-5-fluoro-4-methylbenzamide], for which, in data set [2], the IC50 was 0.316 nM. The same measure, in the same setting: the result for `Cc1c(F)cc(C(=O)NC2CC2)cc1-c1ccc2c(=O)n(CC3CC3)cc(CN3CCN[C@H](C)C3)c2c1` [Example 107, (R)—N-Cyclopropyl-3-(2-(cyclopropylmethyl)-4-((3-methylpiperazin-1-yl)methyl)-1-oxo-1,2-dihydroisoquinolin-6-yl)-5-fluoro-4-methylbenzamide] reads 0.794 nM; that for `Cc1c(F)cc(C(=O)NC2CC2)cc1-c1ccc2c(=O)n(CC3CC3)cc(CN3CCNC[C@H]3CO)c2c1` [Example 108, (S)—N-Cyclopropyl-3-(2-(cyclopropylmethyl)-4-((2-(hydroxymethyl)piperazin-1-yl)methyl)-1-oxo-1,2-dihydroisoquinolin-6-yl)-5-fluoro-4-methylbenzamide], 0.0631 nM. For the compound `Cc1c(F)cc(C(=O)NC2CC2)cc1-c1ccc2c(=O)n(CC3CC3)cc(CN3CC[C@@H](N)C3)c2c1` [Example 109, (R)-3-(4-((3-Aminopyrrolidin-1-yl)methyl)-2-(cyclopropylmethyl)-1-oxo-1,2-dihydroisoquinolin-6-yl)-N-cyclopropyl-5-fluoro-4-methylbenzamide], the IC50 in data set [2] is 1.58 nM.

Turning to `Cc1c(F)cc(C(=O)NC2CC2)cc1-c1ccc2c(=O)n(CC3CC3)cc(CN[C@@H]3CCNC3)c2c1` [Example 110, (R)—N-Cyclopropyl-3-(2-(cyclopropylmethyl)-1-oxo-4-((pyrrolidin-3-ylamino)methyl)-1,2-dihydroisoquinolin-6-yl)-5-fluoro-4-methylbenzamide], the IC50 in data set [2] was 1 nM. The same measure, in the same setting: the same measure for `Cc1c(F)cc(C(=O)NC2CC2)cc1-c1ccc2c(=O)n(CC3CC3)cc(CN3C[C@@H]4C[C@H]3CN4)c2c1` [Example 111, 3-(4-((1S,4S)-2,5-Diazabicyclo[2.2.1]heptan-2-ylmethyl)-2-(cyclopropylmethyl)-1-oxo-1,2-dihydroisoquinolin-6-yl)-N-cyclopropyl-5-fluoro-4-methylbenzamide]: 0.1 nM; for `Cc1c(F)cc(C(=O)NC2CC2)cc1-c1ccc2c(=O)n(Cc3ccc(S(C)(=O)=O)cc3)cc(CN3CCN(C)CC3)c2c1` [Example 112, N-Cyclopropyl-3-fluoro-4-methyl-5-(4-((4-methylpiperazin-1-yl)methyl)-2-(4-(methylsulfonyl)benzyl)-1-oxo-1,2-dihydroisoquinolin-6-yl)benzamide]: 0.126 nM; for `Cc1c(F)cc(C(=O)NC2CC2)cc1-c1ccc2c(=O)n(Cc3ccc(S(C)(=O)=O)cc3)cc(CN3CCN[C@@H](CO)C3)c2c1` [Example 113, (R)—N-Cyclopropyl-3-fluoro-5-(4-((3-(hydroxymethyl)piperazin-1-yl)methyl)-2-(4-(methylsulfonyl)benzyl)-1-oxo-1,2-dihydroisoquinolin-6-yl)-4-methylbenzamide]: 0.0794 nM. On the same count and under the same terms, the same measure for `Cc1ccc(C(=O)NC2CC2)cc1-c1ccc2c(=O)n(Cc3ccc(C(=O)NS(C)(=O)=O)cc3)cc(CN3CCCN(C)CC3)c2c1` [Example 114, N-Cyclopropyl-4-methyl-3-(4-((4-methyl-1,4-diazepan-1-yl)methyl)-2-(4-(methylsulfonylcarbamoyl)benzyl)-1-oxo-1,2-dihydroisoquinolin-6-yl)benzamide]: 0.251 nM; for `Cc1c(F)cc(C(=O)NC2CC2)cc1-c1ccc2c(=O)n(Cc3ccc(S(C)(=O)=O)cc3)cc(CN3CCN(C)[C@@H](CO)C3)c2c1` [Example 115]: 0.1 nM; for `CC[C@H]1CN(Cc2cn(CC3CC3)c(=O)c3ccc(-c4cc(C(=O)NC5CC5)cc(F)c4C)cc23)CCN1` [Example 116, (S)—N-Cyclopropyl-3-(2-(cyclopropylmethyl)-4-((3-ethylpiperazin-1-yl)methyl)-1-oxo-1,2-dihydroisoquinolin-6-yl)-5-fluoro-4-methylbenzamide]: 0.501 nM.

On to `Cc1c(F)cc(C(=O)NC2CC2)cc1-c1ccc2c(=O)n(CC3CC3)cc(CN3CCN[C@@H](CCO)C3)c2c1` [Example 117, (S)—N-Cyclopropyl-3-(2-(cyclopropylmethyl)-4-((3-(2-hydroxyethyl)piperazin-1-yl)methyl)-1-oxo-1,2-dihydroisoquinolin-6-yl)-5-fluoro-4-methylbenzamide], for which the IC50 in data set [2] is 0.158 nM. With `Cc1c(F)cc(C(=O)NC2CC2)cc1-c1ccc2c(=O)n(CC3CC3)cc(CN3CCNC[C@@H]3C)c2c1` [Example 118, (S)—N-Cyclopropyl-3-(2-(cyclopropylmethyl)-4-((2-methylpiperazin-1-yl)methyl)-1-oxo-1,2-dihydroisoquinolin-6-yl)-5-fluoro-4-methylbenzamide], the IC50 in data set [2] is 0.251 nM. Turning to `Cc1c(F)cc(C(=O)NC2CC2)cc1-c1ccc2c(=O)n(CC3CC3)cc(CN3C[C@@H](N)C[C@@H]3CO)c2c1` [Example 119, 3-(4-(((2R,4S)-4-Amino-2-(hydroxymethyl)pyrrolidin-1-yl)methyl)-2-(cyclopropylmethyl)-1-oxo-1,2-dihydroisoquinolin-6-yl)-N-cyclopropyl-5-fluoro-4-methylbenzamide], the IC50 in data set [2] is 0.398 nM. Take `Cc1c(F)cc(C(=O)NC2CC2)cc1-c1ccc2c(=O)n(CC3CC3)cc(CN3CCC[C@@H]3CN)c2c1` [Example 120, (R)-3-(4-((2-(Aminomethyl)pyrrolidin-1-yl)methyl)-2-(cyclopropylmethyl)-1-oxo-1,2-dihydroisoquinolin-6-yl)-N-cyclopropyl-5-fluoro-4-methylbenzamide]: the IC50 in data set [2] was 0.794 nM.

For the compound `Cc1ccc(C(=O)NC2CC2)cc1-c1ccc2c(=O)n(C(C)c3ccccc3)ccc2c1` (stereo not shown) [Example 121, N-Cyclopropyl-4-methyl-3-(1-oxo-2-(1-phenylethyl)-1,2-dihydroisoquinolin-6-yl)benzamide], the IC50 in data set [2] was 3.98 nM. Take `Cc1ccc(C(=O)NC2CC2)cc1-c1ccc2c(=O)n(CC3CC3)ccc2c1` [Example 122, N-Cyclopropyl-3-(2-cyclopropylmethyl-1-oxo-1,2-dihydro-isoquinolin-6-yl)-4-methylbenzamide]: the IC50 in data set [2] was 1.58 nM. In the case of `CCC(CC)Cn1ccc2cc(-c3cc(C(=O)NC4CC4)ccc3C)ccc2c1=O` [Example 123, N-Cyclopropyl-3-(2-(2-ethylbutyl)-1-oxo-1,2-dihydroisoquinolin-6-yl)-4-methylbenzamide], the IC50 in data set [2] was 3.16 nM. In the case of `Cc1ccc(C(=O)NC2CC2)cc1-c1ccc2c(=O)n(CC3CCC3)ccc2c1` [Example 124, 3-(2-(Cyclobutylmethyl)-1-oxo-1,2-dihydroisoquinolin-6-yl)-N-cyclopropyl-4-methylbenzamide], the IC50 in data set [2] was 3.98 nM. Same read-out and setting: the same measure for `Cc1ccc(C(=O)NC2CC2)cc1-c1ccc2c(=O)n(CC3CCNCC3)ccc2c1` [Example 125, N-Cyclopropyl-4-methyl-3-(1-oxo-2-piperidin-4-ylmethyl-1,2-dihydro-isoquinolin-6-yl)-benzamide]: 63.1 nM; for `Cc1ccc(C(=O)NC2CC2)cc1-c1ccc2c(=O)n(Cc3ccccn3)ccc2c1` [Example 126, N-Cyclopropyl-4-methyl-3-(1-oxo-2-(pyridin-2-ylmethyl)-1,2-dihydroisoquinolin-6-yl)benzamide]: 10 nM. Regarding `Cc1c(F)cc(C(=O)NC2CC2)cc1-c1ccc2c(=O)n(CC3CC3)cc(CN3CCNC(CO)CC3)c2c1` (stereo not shown) [Example 127, N-Cyclopropyl-3-[2-cyclopropylmethyl-4-(5-hydroxymethyl-[1,4]diazepan-1-ylmethyl)-1-oxo-1,2-dihydro-isoquinolin-6-yl]-5-fluoro-4-methyl-benzamide], the IC50 in data set [2] is 0.158 nM. Consider `Cc1c(F)cc(C(=O)NC2CC2)cc1-c1ccc2c(=O)n(CC3CC3)cc(CN3CCC[C@H]3CN)c2c1` [Example 128, (S)-3-(4-((2-(Aminomethyl)pyrrolidin-1-yl)methyl)-2-(cyclopropylmethyl)-1-oxo-1,2-dihydroisoquinolin-6-yl)-N-cyclopropyl-5-fluoro-4-methylbenzamide], for which, in data set [2], the IC50 is 0.316 nM.
